According to patent US20250325552A1, “SUBSTITUTED THIADIAZOLYL DERIVATIVES AS DNA POLYMERASE THETA INHIBITORS” (IDEAYA Biosciences, Inc., priority 2020, published 2025):

Biological target: Polθ theta (1-899) (hPolQ) (Homo sapiens (Human), UniProt O75417)
Experiment: Biological Assay 1: Polθ ATPase activity, NADH oxidation-coupled enzymatic assay (10 nM enzyme, 30 min)
Assay type: biochemical
Details: Polθ (1-899) 10 nM, 100 μM ATP, 300 nM dT50 ssDNA; Examples 1 to 268; read-out: ATPase NADH coupling:Standard Screening:hPolQ IC50
How it was run: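 ATP turnover was coupled to NADH oxidation and followed at 340 nm every minute for 30 min. Enzyme (residues 1-899, 10 nM) sat with compound for 15 min at room temperature before an equal-volume addition of 100 μM ATP plus 300 nM dT50 ssDNA. Progress-curve slopes from 10-point dilutions were fitted by a four-parameter model.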

Polθ theta (1-899) (hPolQ), sequence (O75417 1-899): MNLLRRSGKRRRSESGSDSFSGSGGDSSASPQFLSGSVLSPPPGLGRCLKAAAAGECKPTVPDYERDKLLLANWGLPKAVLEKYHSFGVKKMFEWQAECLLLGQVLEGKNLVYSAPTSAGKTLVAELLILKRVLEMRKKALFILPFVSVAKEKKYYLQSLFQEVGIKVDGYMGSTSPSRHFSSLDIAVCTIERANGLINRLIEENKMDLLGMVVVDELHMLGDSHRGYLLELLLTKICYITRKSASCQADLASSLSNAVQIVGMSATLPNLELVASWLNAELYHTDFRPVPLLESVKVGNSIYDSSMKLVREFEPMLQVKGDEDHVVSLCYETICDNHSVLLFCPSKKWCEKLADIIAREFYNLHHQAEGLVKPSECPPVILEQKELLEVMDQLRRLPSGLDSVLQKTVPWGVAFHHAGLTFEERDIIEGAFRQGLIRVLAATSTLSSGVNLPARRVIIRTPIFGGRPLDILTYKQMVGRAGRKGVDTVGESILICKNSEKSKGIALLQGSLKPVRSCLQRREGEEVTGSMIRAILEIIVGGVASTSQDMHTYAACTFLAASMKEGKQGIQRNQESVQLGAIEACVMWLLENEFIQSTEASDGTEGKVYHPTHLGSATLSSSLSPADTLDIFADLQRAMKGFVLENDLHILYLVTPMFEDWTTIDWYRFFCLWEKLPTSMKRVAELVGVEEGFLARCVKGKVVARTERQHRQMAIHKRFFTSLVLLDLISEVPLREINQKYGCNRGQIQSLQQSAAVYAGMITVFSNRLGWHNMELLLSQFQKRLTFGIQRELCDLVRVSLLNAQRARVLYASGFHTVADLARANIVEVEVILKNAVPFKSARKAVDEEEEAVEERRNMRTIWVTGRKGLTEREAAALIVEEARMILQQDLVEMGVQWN

| Compound | IC50 |
| --- | --- |
| COc1cnc(Cl)cc1-c1cc(C)ncc1C(=O)Nc1nnc(OCC23CC(O)(C2)C3)s1 [Example 99, 2′-chloro-N-(5-((3-hydroxybicyclo(1.1.1)pentan-1-yl)methoxy)-1,3,4-thiadiazol-2-yl)-5′-methoxy-6-methyl-(4,4′-bipyridine)-3-carboxamide] | ≤ 200 nM |
| COc1cnc(Cl)cc1-c1cc(C)ncc1C(=O)Nc1nnc(OC[C@H]2CC[C@H](OC(F)F)CC2)s1 [Example 159, 2′-chloro-N-(5-(((1r,4r)-4-(difluoromethoxy)cyclohexyl)methoxy)-1,3,4-thiadiazol-2-yl)-5′-methoxy-6-methyl-(4,4′-bipyridine)-3-carboxamide] | ≤ 200 nM |
| Cc1cc(-c2cc(Cl)ncc2OC(F)F)c(C(=O)Nc2nnc(OC[C@H]3COCCO3)s2)cn1 [Example 234, (R)—N-(5-((1,4-dioxan-2-yl)methoxy)-1,3,4-thiadiazol-2-yl)-2′-chloro-5′-(difluoromethoxy)-6-methyl-(4,4′-bipyridine)-3-carboxamide] | ≤ 200 nM |
| COc1cccc(F)c1-c1cc(C)ncc1C(=O)Nc1nnc(OCc2cnc(CO)cn2)s1 [Example 97, 4-(2-fluoro-6-methoxyphenyl)-N-(5-((5-(hydroxymethyl)pyrazin-2-yl)methoxy)-1,3,4-thiadiazol-2-yl)-6-methylnicotinamide] | ≤ 200 nM |
| COc1cnc(Cl)cc1-c1cc(C)ncc1C(=O)Nc1nnc(OCC2CCOC2)s1 (stereo in doubt) [Example 170, (R)-2′-chloro-5′-methoxy-6-methyl-N-(5-((tetrahydrofuran-3-yl)methoxy)-1,3,4-thiadiazol-2-yl)-(4,4′-bipyridine)-3-carboxamide] | ≤ 200 nM |
| COc1cnc(Cl)cc1-c1cc(C)ncc1C(=O)Nc1nnc(OC[C@H]2CC[C@@H](O)CC2)s1 [Example 128, 2′-chloro-N-(5-(((1s,4s)-4-hydroxycyclohexyl)methoxy)-1,3,4-thiadiazol-2-yl)-5′-methoxy-6-methyl-[4,4′-bipyridine]-3-carboxamide] | ≤ 200 nM |
| COc1c(-c2cc(C)ncc2C(=O)Nc2nnc(OCc3ccc(Cl)cn3)s2)ccnc1Cl [Example 77, 2′-chloro-N-(5-((5-chloropyridin-2-yl)methoxy)-1,3,4-thiadiazol-2-yl)-3′-methoxy-6-methyl-(4,4′-bipyridine)-3-carboxamide] | ≤ 200 nM |
| COc1ccccc1-c1cc(C)ncc1C(=O)Nc1nnc(OCc2cc(CO)ccn2)s1 [Example 42, N-(5-((4-(hydroxymethyl)pyridin-2-yl)methoxy)-1,3,4-thiadiazol-2-yl)-4-(2-methoxyphenyl)-6-methylpyridine-3-carboxamide] | 200 to 500 nM |
| COc1cccc(F)c1-c1cc(C)ncc1C(=O)Nc1nnc(OCc2ccc(C3(C)COC3)cn2)s1 [Example 140, 4-(2-fluoro-6-methoxyphenyl)-6-methyl-N-(5-((5-(3-methyloxetan-3-yl)pyridin-2-yl)methoxy)-1,3,4-thiadiazol-2-yl)nicotinamide] | ≤ 200 nM |
| COc1cccc(F)c1-c1cc(C)ncc1C(=O)Nc1nnc(OCc2ccc([C@H](C)OC)cn2)s1 [Example 93, 4-(2-fluoro-6-methoxyphenyl)-N-(5-((5-((S)-1-methoxyethyl)pyridin-2-yl)methoxy)-1,3,4-thiadiazol-2-yl)-6-methylnicotinamide] | ≤ 200 nM |
| COc1ccccc1-c1cc(C)ncc1C(=O)Nc1nnc(OCc2ccc(CO)cn2)s1 [compound 5, N-(5-((5-(hydroxymethyl)pyridin-2-yl)methoxy)-1,3,4-thiadiazol-2-yl)-4-(2-methoxyphenyl)-6-methylnicotinamide] | ≤ 200 nM |
| CN=[S@@](C)(=O)c1ccc(COc2nnc(NC(=O)c3cnc(C)cc3-c3cc(Cl)ccc3OC)s2)nc1 [Example 152, (S)-4-(5-chloro-2-methoxyphenyl)-N-(5-((5-(N,S-dimethylsulfonimidoyl)pyridin-2-yl)methoxy)-1,3,4-thiadiazol-2-yl)-6-methylnicotinamide] | ≤ 200 nM |
| Cc1cc(-c2c(F)cccc2OC(F)F)c(C(=O)Nc2nnc(OCc3ccc([C@@H](C)O)cn3)s2)cn1 [Example 57, 4-(2-(difluoromethoxy)-6-fluorophenyl)-N-(5-((5-((R)-1-hydroxyethyl)pyridin-2-yl)methoxy)-1,3,4-thiadiazol-2-yl)-6-methylnicotinamide] | ≤ 200 nM |
| COc1cccc(F)c1-c1cc(C)ncc1C(=O)Nc1nnc(OCc2ccc3c(n2)CCCC3O)s1 (racemic) [Example 92, 4-(2-fluoro-6-methoxyphenyl)-N-(5-((5-hydroxy-5,6,7,8-tetrahydroquinolin-2-yl)methoxy)-1,3,4-thiadiazol-2-yl)-6-methylnicotinamide] | ≤ 200 nM |
| N-(5-(((S)-1,4-dioxan-2-yl)methoxy)-1,3,4-thiadiazol-2-yl)-3′-fluoro-5′-methoxy-2′,6-dimethyl-(4,4′-bipyridine)-3-carboxamide [Example 241] | ≤ 200 nM |
| COc1cnc(Cl)cc1-c1cc(C)ncc1C(=O)Nc1nnc(OCC2(C)CCOC2)s1 (stereo not shown) [Example 131, 2′-chloro-5′-methoxy-6-methyl-N-(5-((3-methyloxolan-3-yl)methoxy)-1,3,4-thiadiazol-2-yl)-(4,4′-bipyridine)-3-carboxamide] | ≤ 200 nM |
| COc1cnc(Cl)cc1-c1cc(C)ncc1C(=O)Nc1nnc(OCC2CCC(F)(F)CC2)s1 [Example 153, 2′-chloro-N-(5-((4,4-difluorocyclohexyl)methoxy)-1,3,4-thiadiazol-2-yl)-5′-methoxy-6-methyl-(4,4′-bipyridine)-3-carboxamide] | ≤ 200 nM |
| COc1cnc(Cl)c(F)c1-c1cc(C)ncc1C(=O)Nc1nnc(OC[C@H]2CC[C@H](O)CC2)s1 [Example 248, 2′-chloro-3′-fluoro-N-(5-(((1r,4r)-4-hydroxycyclohexyl)methoxy)-1,3,4-thiadiazol-2-yl)-5′-methoxy-6-methyl-(4,4′-bipyridine)-3-carboxamide] | ≤ 200 nM |
| COc1cnc(C)cc1-c1cc(C)ncc1C(=O)Nc1nnc(OCC2CC3(CC(O)C3)C2)s1 (stereo not shown) [Example 139, N-(5-((6-hydroxyspiro[3.3]heptan-2-yl)methoxy)-1,3,4-thiadiazol-2-yl)-5′-methoxy-2′,6-dimethyl-[4,4′-bipyridine]-3-carboxamide] | ≤ 200 nM |
| COc1cccc(F)c1-c1cc(C)ncc1C(=O)Nc1nnc(OCc2ccc(CC3COC3)cn2)s1 [Example 54, 4-(2-fluoro-6-methoxyphenyl)-6-methyl-N-(5-((5-(oxetan-3-ylmethyl)pyridin-2-yl)methoxy)-1,3,4-thiadiazol-2-yl)nicotinamide] | ≤ 200 nM |
| COc1cccc(F)c1-c1cc2ncn(C)c2cc1C(=O)Nc1nnc(OC[C@H]2CC[C@H](O)CC2)s1 [Example 200, 5-(2-fluoro-6-methoxyphenyl)-N-(5-(((1r,4r)-4-hydroxycyclohexyl)methoxy)-1,3,4-thiadiazol-2-yl)-1-methyl-1H-benzo(d)imidazole-6-carboxamide] | 200 to 500 nM |
| COc1cnc(C)cc1-c1cc(C)ncc1C(=O)Nc1nnc(OCc2ccc(C(C)(C)C#N)cn2)s1 [Example 83, N-(5-((5-(2-cyanopropan-2-yl)pyridin-2-yl)methoxy)-1,3,4-thiadiazol-2-yl)-5′-methoxy-2′,6-dimethyl-(4,4′-bipyridine)-3-carboxamide] | ≤ 200 nM |
